Experiments:
[1] = tested on: Escherichia coli SKF 12140; assay: In vitro MIC, two-fold dilution in microtiter; type: cell-based; details: 18-24 h at 37° C., inoculum about 10^4 CFU/ml
Method: (§1) Broth cultures are diluted enough so that the final inecuium is about 10^4 colony forming units/ml (CFU/ml).

[2] = tested on: Proteus vulgaris X19H ATCC 881; assay: In vitro MIC, two-fold dilution in microtiter; type: cell-based; details: 18-24 h at 37° C., inoculum about 10^4 CFU/ml
Method: as §1

[3] = tested on: Pseudomonas aeruginosa ATCC 10145; assay: In vitro MIC, two-fold dilution in microtiter; type: cell-based; details: 18-24 h at 37° C., inoculum about 10^4 CFU/ml
Method: as §1

[4] = tested on: Staphylococcus aureus TOUR; assay: In vitro MIC, two-fold dilution in microtiter; type: cell-based; details: 18-24 h at 37° C., inoculum about 10^4 CFU/ml
Method: as §1

[5] = tested on: Staphylococcus epidermidis ATCC 12228; assay: In vitro MIC, two-fold dilution in microtiter; type: cell-based; details: 18-24 h at 37° C., inoculum about 10^4 CFU/ml
Method: as §1

[6] = tested on: Staphylococcus haemolyticus L 602; assay: In vitro MIC, two-fold dilution in microtiter; type: cell-based; details: 18-24 h at 37° C., inoculum about 10^4 CFU/ml
Method: as §1

[7] = tested on: Streptococcus faecalis ATCC 7080; assay: In vitro MIC, two-fold dilution in microtiter; type: cell-based; details: 18-24 h at 37° C., inoculum about 10^4 CFU/ml
Method: as §1

[8] = tested on: Streptococcus pneumoniae UC 41; assay: In vitro MIC, two-fold dilution in microtiter; type: cell-based; details: 18-24 h at 37° C., inoculum about 10^4 CFU/ml
Method: as §1

[9] = tested on: Streptococcus pyogenes C 203; assay: In vitro MIC, two-fold dilution in microtiter; type: cell-based; details: 18-24 h at 37° C., inoculum about 10^4 CFU/ml
Method: as §1

[10] = tested on: Pseudomonas aeruginosa Strain No. L 1138; assay: MIC against multi-resistant clinical isolates of Pseudomonas aeruginosa; type: cell-based; details: multi-resistant clinical isolate
Method: as §1
(§2) The activity against some multi-resistant clinical isolates of Pseudomonas aeruginosa of compounds 22, 23, 25, 26, 27 and 29 is shown in Table II.

[11] = tested on: Pseudomonas aeruginosa Strain No. L 1348; assay: as above; type: cell-based; details: multi-resistant clinical isolate
Method: as §1, §2

[12] = tested on: Pseudomonas aeruginosa Strain No. L 1498; assay: as above; type: cell-based; details: multi-resistant clinical isolate
Method: as §1, §2

[13] = tested on: Pseudomonas aeruginosa Strain No. L 1533; assay: as above; type: cell-based; details: multi-resistant clinical isolate
Method: as §1, §2

E. coli = assay: Mice septicemically infected with E. coli; type: in vivo; details: E. coli septicemia

| Structure (SMILES) | MIC Escherichia coli SKF 12140 [1] [microgram/ml] | MIC Proteus vulgaris X19H ATCC 881 [2] [microgram/ml] | MIC Pseudomonas aeruginosa ATCC 10145 [3] [microgram/ml] | MIC Staphylococcus aureus TOUR [4] [microgram/ml] | MIC Staphylococcus epidermidis ATCC 12228 [5] [microgram/ml] | MIC Streptococcus faecalis ATCC 7080 [7] [microgram/ml] | MIC Streptococcus pneumoniae UC 41 [8] [microgram/ml] | MIC Streptococcus pyogenes C 203 [9] [microgram/ml] | MIC Pseudomonas aeruginosa L 1138 [10] [microgram/ml] | MIC Pseudomonas aeruginosa L 1348 [11] [microgram/ml] | MIC Pseudomonas aeruginosa L 1498 [12] [microgram/ml] | MIC Pseudomonas aeruginosa L 1533 [13] [microgram/ml] | MIC Staphylococcus haemolyticus L 602 [6] [microgram/ml] | survivors/treated (E. coli; i.v. administration, 40 mg/kg) | ED50 s.c. (E. coli; s.c. administration) [mg/kg] |
| --- | --- | --- | --- | --- | --- | --- | --- | --- | --- | --- | --- | --- | --- | --- | --- |
| NCCCNCCCNC(=O)C1NC(=O)C2NC(=O)C(NC(=O)C3NC(=O)C4NC(=O)C(Cc5ccc(c(Cl)c5)Oc5cc3cc(c5O)Oc3ccc(cc3Cl)C2O)NC(=O)C(N)c2ccc(O)c(c2)Oc2cc(O)cc4c2)c2ccc(O)c(c2)-c2c(O)cc(O)cc21 (stereo not shown) [Compound 22] | 1 | 32 | 8 | 0.06 | 0.03 | 0.12 | 0.12 | 0.12 | 64 | 4 | 64 | 64 | 0.12 |  |  |
| NCCCNCCNCCCNC(=O)C1NC(=O)C2NC(=O)C(NC(=O)C3NC(=O)C4NC(=O)C(Cc5ccc(c(Cl)c5)Oc5cc3cc(c5O)Oc3ccc(cc3Cl)C2O)NC(=O)C(N)c2ccc(O)c(c2)Oc2cc(O)cc4c2)c2ccc(O)c(c2)-c2c(O)cc(O)cc21 (stereo not shown) [Compound 25] | 2 | 64 | 16 | 0.12 | 0.06 | 0.12 | 0.12 | 0.06 | 32 | 4 | 64 | 64 | 0.12 |  |  |
| NCCCN(CCCN)CCCNC(=O)C1NC(=O)C2NC(=O)C(NC(=O)C3NC(=O)C4NC(=O)C(Cc5ccc(c(Cl)c5)Oc5cc3cc(c5O)Oc3ccc(cc3Cl)C2O)NC(=O)C(N)c2ccc(O)c(c2)Oc2cc(O)cc4c2)c2ccc(O)c(c2)-c2c(O)cc(O)cc21 (stereo not shown) [Compound 50] | 1 | 128 | 8 | 0.12 | 0.008 | 0.12 | 0.12 | 0.06 |  |  |  |  | 0.06 | 7/8 | ≤ 38 |

The next lines start with results.

| MIC Escherichia coli SKF 12140 [1] [microgram/ml] | MIC Proteus vulgaris X19H ATCC 881 [2] [microgram/ml] | MIC Pseudomonas aeruginosa ATCC 10145 [3] [microgram/ml] | MIC Staphylococcus aureus TOUR [4] [microgram/ml] | MIC Staphylococcus epidermidis ATCC 12228 [5] [microgram/ml] | MIC Streptococcus faecalis ATCC 7080 [7] [microgram/ml] | MIC Streptococcus pneumoniae UC 41 [8] [microgram/ml] | MIC Streptococcus pyogenes C 203 [9] [microgram/ml] | MIC Pseudomonas aeruginosa L 1138 [10] [microgram/ml] | MIC Pseudomonas aeruginosa L 1348 [11] [microgram/ml] | MIC Pseudomonas aeruginosa L 1498 [12] [microgram/ml] | MIC Pseudomonas aeruginosa L 1533 [13] [microgram/ml] | Structure (SMILES) | MIC Staphylococcus haemolyticus L 602 [6] [microgram/ml] | survivors/treated (E. coli; i.v. administration, 40 mg/kg) | ED50 s.c. (E. coli; s.c. administration) [mg/kg] |
| --- | --- | --- | --- | --- | --- | --- | --- | --- | --- | --- | --- | --- | --- | --- | --- |
| 0.5 | 64 | 2 | 0.06 | 0.016 | 0.25 | 0.12 | 0.06 | 32 | 4 | 64 | 64 | NCCCNCCCNCCCNC(=O)C1NC(=O)C2NC(=O)C(NC(=O)C3NC(=O)C4NC(=O)C(Cc5ccc(c(Cl)c5)Oc5cc3cc(c5O)Oc3ccc(cc3Cl)C2O)NC(=O)C(N)c2ccc(O)c(c2)Oc2cc(O)cc4c2)c2ccc(O)c(c2)-c2c(O)cc(O)cc21 (stereo not shown) [Compound 26] | 0.06 |  |  |
| 2 | 64 | 8 | 0.06 | 0.06 | 0.12 | 0.12 | 0.06 | 64 | 4 | 64 | 64 | NCCCNCCCCNCCCNC(=O)C1NC(=O)C2NC(=O)C(NC(=O)C3NC(=O)C4NC(=O)C(Cc5ccc(c(Cl)c5)Oc5cc3cc(c5O)Oc3ccc(cc3Cl)C2O)NC(=O)C(N)c2ccc(O)c(c2)Oc2cc(O)cc4c2)c2ccc(O)c(c2)-c2c(O)cc(O)cc21 (stereo not shown) [Compound 27] | 0.12 |  |  |
| 1 | 32 | 8 | 0.06 | 0.016 | 0.12 | 0.12 | 0.06 | 64 | 8 | 64 | 128 | NCCN(CCN)CCNC(=O)C1NC(=O)C2NC(=O)C(NC(=O)C3NC(=O)C4NC(=O)C(Cc5ccc(c(Cl)c5)Oc5cc3cc(c5O)Oc3ccc(cc3Cl)C2O)NC(=O)C(N)c2ccc(O)c(c2)Oc2cc(O)cc4c2)c2ccc(O)c(c2)-c2c(O)cc(O)cc21 (stereo not shown) [Compound 29] | 0.06 |  |  |

— patent US5500410A, “Substituted alkylamide derivatives of teicoplanin” (Gruppo Lepetit S.p.A., priority 1989, dated 1996)
